Data reported in paper PMC12416277, “Phytochemical alkaloids orchestrate immunometabolism against viral infections” (National Science Review, 2025).

Experiments:
[1] = tested on: TBK1, STAT1 and STAT2 phosphorylation; experiment: Immunoblotting of p-TBK1, p-STAT1, p-STAT2 in THP-1 and MEF cells; type: cell-based; settings: THP-1, MEF cells
[2] = tested on: Ifnb1, Ifit1, Ifit2 and Ifi44 mRNA; experiment: Ifnb1 and ISG mRNA in mouse lungs, livers, spleens after intraperitoneal injection; type: in vivo; settings: intraperitoneal 30, 60 mg/kg/d, 24-48 h
H1N1 [3] = experiment: H1N1 mRNA in WT, TPCN1-/-, TPCN2-/- A549 cells or with nimodipine, qRT-PCR; type: cell-based, influenza virus A (H1N1)
H1N1 [4] = experiment: Time-of-drug-addition assay, H1N1 in A549 cells; type: cell-based, influenza virus A (H1N1); settings: pre-treatment, co-treatment and post-treatment
[5] = tested on: NPC1 and STING in lysosomal microdomains; experiment: Lysosome immunoprecipitation with density gradient ultracentrifugation (LysoIP-DEG) in HepG2 cells; type: cell-based
Experimental: Figure 5. The dual functions of Tet to resist viral entry and activate antiviral immunity through the NPC1/STING axis. (a, b) Confocal analysis of Bio-Tet with CD63 (a) or NPC1 (b) in A549 cells, scale bar: 10 μm. (c) Binding affinity analysis of NPC1 with itraconazole, U18666A, or Tet was determined by SPR. (d, e) CETSA (d) and DARTS (e) analysis of NPC1 with Tet in HepG2 cells. (f) Streptavidin-covered beads with biotin, Bio-Tet, Bio-Tet + Tet were incubated with cell lysates. As indicated, the levels of NPC1 protein in bound proteins (IP) and total proteins (Input) were determined using immunoblotting. (g) Viral mRNA expression in siNPC1-transfected cells treated with Tet. (h) Viral mRNA expression in sgRNA-EV, sgRNA Npc1, and sgRNA Npc1 cells transfected with Flag-NPC1 treated with Tet. (i) Ifit1 and Ifit2 mRNA expression in sgRNA-EV, sgRNA Npc1, and sgRNA Npc1 cells transfected with Flag-NPC1 stimulated with DMXAA and Tet. (j) Schematic of LysoIP-DEG. (k) Immunoblotting analysis of the indicated proteins in LysoIP-DEG in Tet-treated HepG2 cells. (l) Schematic model of NPC1/STING axis-mediated viral inhibition by Tet. […] P values were calculated using one-way ANOVA (g, h, i). […]
The LysoIP-DEG was performed as previously described with minor modifications. […] The collected samples were dissolved in 50 µL 2 × SDS loading buffer and then assessed through western blotting analysis.

H1N1 [6] = experiment: Dose-response of infectivity, H1N1 in A549 cells (viral mRNA by qRT-PCR); type: cell-based; settings: Influenza A virus; A549 cells, H1N1; read-out: EC50
EMCV = experiment: microbe, parasite or virus in culture; type: cell-based, encephalomyocarditis virus (EMCV); settings: Cardiovirus A, L929
[7] = tested on: cholesterol metabolism genes; type: cell-based, human
IFN-β = IFN-β secretion in MEF cells (ELISA); type: cell-based
VSV = type: cell-based, vesicular stomatitis virus (VSV)

## COc1ccc2cc1Oc1ccc(cc1)C[C@H]1c3cc(c(OC)cc3CCN1C)Oc1c(OC)c(OC)cc3c1[C@H](C2)N(C)CC3 [Tet, tetrandrine]
[1]
  phosphorylation of TBK1, STAT1 and STAT2: increased the phosphorylation of TBK1, STAT1 and STAT2 in a time- and dose-dependent manner
[2]
  Ifnb1 and ISGs mRNA levels in vivo: increased Ifnb1 and ISGs mRNA levels in vivo, particularly in lungs and livers
H1N1 [3]
  H1N1 replication: suppressed
H1N1 [3]; with nimodipine treatment
  antiviral efficacy: remained unchanged
H1N1 [4]
  H1N1 infection: effectively suppressed
[5]
  NPC1 and STING expression in lysosomal microdomains: enhanced NPC1 and STING expression in lysosomal microdomains after 6 hours
H1N1 [6]
  EC50: 330 nM
EMCV
  EC50: 989 nM
[7]
  expression of genes involved in cholesterol synthesis (SREBF2, HMGCR, SQLE, SREBP1C, DHCR24, DHCR7, FASN) and absorption (LDLR): increased expression
  expression of genes related to cholesterol transport (ABCA1, ABCG1), oxidation (CYP27A1, CYP46A1) or esterification (ACAT1, ACAT2): did not affect the expression
IFN-β
  IFN-β production: induced
VSV
  VSV replication (VSV-G protein, immunoblotting): inhibited
